In patent US20110200626A1, “IQGAP3 EPITOPE PEPTIDES AND VACCINES CONTAINING THE SAME” (Oncotherapy Science, Inc., priority 2008, published 2011):
Ends that are not written are not given here.

How the values were obtained:
[1] = system: peptide-pulsed T2 cells; experiment: IFN-gamma ELISPOT assay on CTLs induced with HLA-A*0201 restricted peptides; assay type: cell-based, human; settings: against peptide-pulsed target cells compared with control without peptide, listed as IQGAP3-A02-10-1424
[2] = system: peptide-pulsed T2 cells; experiment: IFN-gamma ELISA assay on CTL lines (HLA-A*0201); assay type: cell-based, human; settings: target cells pulsed with corresponding peptide vs without peptide

“SLTAhSLLPL (SLTAHSLLPL; not fully specified (residue 5); printed as SLTAhSLLPL) [SEQ ID NO: 141]” was tested, and the “IFN-gamma production of peptide-induced CTLs (ELISPOT)” value [1] was “potent IFN-gamma production ability” and the “IFN-gamma production of established CTL lines (ELISA)” value [2] was “potent IFN-gamma production”.
